# Where a name gives a salt, the structure may show the parent alone. Read-outs that look alike come from different tables or passages of the source.
# Columns and labels:
# [1] = Solubility or suspendability of the antimicrobial agent in the n-butyl cyanoacrylate composition
# [2] = Premature polymerization (gel formation) of the cyanoacrylate composition after mixing with the antimicrobial agent; type: physicochemical; conditions: for Period over which the composition polymerized after mixing: 5 weight percent agent based on total weight of composition; for Compatibility with the cyanoacrylate composition: overall conclusion of Example 1, for tetracycline hydrochloride and hexachlorophene when mixed immediately prior to use
SMILES,Soluble [1],"Soluble ([1]; in monomeric n-butyl cyanoacrylate with 100 ppm sulfur dioxide and 20 weight percent dioctyl phthalate, agent conc. per column Conc. (~20% iodine, 10% PVP-I2, 5% others))",Period over which the composition polymerized after mixing [2] [h],Compatibility with the cyanoacrylate composition [2]
"CC[C@H]1OC(=O)[C@H](C)[C@@H](O[C@H]2C[C@@](C)(OC)[C@@H](O)[C@H](C)O2)[C@H](C)[C@@H](O[C@@H]2O[C@H](C)C[C@H](N(C)C)[C@H]2O)[C@](C)(O)C[C@@H](C)C(=O)[C@H](C)[C@@H](O)[C@]1(C)O [Erythromycin, erythromycin]","no, gelled^1",–,–,–
"O=C([O-])c1ccccc1-c1c2cc(Br)c(=O)cc-2oc2[c]([Hg+])c([O-])c(Br)cc12.[Na+].[Na+].[OH-] [Merbromin, merbromin]",–,"no, gelled^1",–,–
"II [elemental iodine (I2), elemental iodine]",partially,–,–,–
Oc1c(Cl)cc(Cl)c(Cl)c1Cc1c(O)c(Cl)cc(Cl)c1Cl [hexachlorophene],–,–,~48,compatible
CN(C)[C@@H]1C(O)=C(C(N)=O)C(=O)[C@@]2(O)C(O)=C3C(=O)c4c(O)cccc4[C@@](C)(O)[C@H]3C[C@@H]12 [tetracycline hydrochloride],–,–,~48,compatible

# Reference: patent US6475502B1, “Kits containing cyanoacrylate compositions comprising an antimicrobial agent” (Flowers Park Ltd., priority 1997, dated 2002)
